Test results: US11571481B2, “Peptide-linked drug delivery system” (priority 2020, dated 2023)
“Also recorded” adds a separate entry of the source. Values belong to the molecule of their own block, whether it stands above or below them. Where a SMILES comes first, the peptide text is derived from it. [ ]: non-standard residue; d: D form. The star is where a group is joined. X1 = COc1cc2cc(c1Cl)N(C)C(=O)C[C@H](OC(=O)[C@H](C)N(C)C(=O)CCS*)[C@]1(C)O[C@H]1[C@H](C)[C@@H]1C[C@@](O)(NC(=O)O1)[C@H](OC)/C=C/C=C(\C)C2; βAla = NCCC(=O)O; Mpa = O=C(O)CCS

How the values were obtained:
[1] = Immunogenicity assay (plasma cytokines by ELISA); assay type: in vivo, BALB/c mice; settings: 5 mg/kg i.v., 4 h after injection
Description: Immunogenicity assay—Female BALB/c mice were treated with a single dose of Bdd or LPS (5 mg/kg) via tail-vein injection (n=3/group). Mice administered with PBS were used as a negative control. Blood samples were collected 4 h later via retro-orbital sinus puncture technique, and the concentration of the innate immune and inflammatory cytokines IL1β, IL2, IL6, IL10, TNF-α, and INF-γ in plasma was measured with commercial sandwich enzyme-linked immunosorbent assay kits. ELISA assays were performed according to the manufacturer's instructions (Invitrogen, Carlsbad, Calif.).

[2] = test system: orthotopic human UMUC-3/GFP-Luc bladder tumors; test: Therapeutic efficacy of drug-Bdd conjugates for treating BC (orthotopic xenograft)
Description: Therapeutic efficacy of drug-Bdd conjugates for treating BC—Animals were orthotopically implanted with tumors as previously described. Briefly, the urine of 7- to 9-week-old female NSG mice (Jackson Laboratory, Bar Harbor, Me.) was remove through a sterile 24 G pediatric venous catheter (Dublin, Ireland). A trypsin solution (0.125%, 80 μL) was then delivered into the bladder, Subsequently. UMUC-3/GFP-Luc cells (4×10^4 cells) in culture media (50 μL) were transferred into the bladders and allowed for seeding. Tumor progression was monitored by bioluminescence imaging. Luciferin (3 mg) in PBS (100 μL) was given to the animals (via intraperitoneal injection) 15 min prior to performing imaging. […] The therapeutic efficacy was evaluated based on tumor growth inhibition (bioluminescence imaging) and long-term survival.

[3] = Toxicity profile in healthy animals (hematology, serum biochemistry, necropsy); assay type: in vivo, BALB/c mice; settings: for hematology (red blood cell, leukocyte, platelet counts, morphology) / histopathology of liver, spleen, heart, lungs, kidneys / serum liver enzymes (ALP, ALT, AST) / urea nitrogen/creatinine ratio: DM1, DM1-Bdd 0.75 mg/kg
Excerpt: At the end of a 3-week treatment, mice were euthanized. The organs/tissues were harvested, fixed in 10% neutral buffered formalin for 2 days. Bones were decalcified in a formic acid solution (Surgipath Decalcifier I; Leica Biosystems, Weltzar, Germany). The samples were then embedded in paraffin, sectioned (5 μm), and stained with H&E for examination by an ACVP board certified anatomic pathologist.
Hematology and biochemistry—Blood samples were collected via cardiac puncture. A complete blood count, including red blood cell, white blood cell, reticulocyte and platelet counts, with an automated differential leukocyte count, was performed using an IDEXX Procyte DX hematology analyzer (iDEXX, Westbrook, Me.). Blood smears were prepared, stained with modified Wright's stain, examined in a blinded fashion by a board-certified veterinary clinical pathologist (T. S.), and imaged using a Nikon Eclipse TE2000-U fluorescent microscope equipped with a photometrics CoolSNAP HQ^2 camera (Nikon Corporation, Tokyo, Japan). The blood was also centrifuged (1,500×G) for 15 min to obtain the serum for biochemical analysis using a Beckman Coulter AU680 analyzer (Beckman Coulter, Brea, Calif.).

[4] = test system: panel of BC cell lines; test: Cell viability and cytotoxicity assay (CellTiter Glo, 72 h); assay type: cell-based
Description: (§1) Cell viability and cytotoxicity assay—Cancer cells (3×10^3/well) were seeded on a flat bottom 96-well plate overnight. […] CellTiter Glo reagent (Promega, Madison, Wis.) was added in each well (50 μL). The luminescence generated was recorded using a microplate reader (Tecan US Inc., Morrisville, N.C.). The dose response curves were plotted, and the half maximal inhibitory concentrations (IC50 values) were calculated using Graph Pad Prism 6.0 software.

[5] = test system: Renca; test: as above; assay type: cell-based, murine
Description: as §1

[6] = test system: UMUC-3; test: as above; assay type: cell-based, human; settings: UMUC-3, 72 h
Description: as §1

[7] = Nephrotoxicity studies (urinary NGAL and KIM-1, kidney histology and IHC); assay type: in vivo, BALB/c mice; settings: for induction of KIM-1 and/or NGAL: i.v., at 3 days
Description: The level of the acute renal injury biomarkers, neutrophil gelatinase-associated lipocalin (NGAL) and kidney injury molecule-1 (KIM-1) in the urine samples, were measured using ELISA assays according to the manufacturer's instructions (R&D Systems, Minneapolis, Minn.). […] All the animals (n=3/group) were euthanized at the end of the treatment and the kidneys were collected and fixed in 10% neutral buffered formalin. The tissues were then processed, embedded in paraffin, sectioned, and stained with H&E. Immunohistochemistry (IHC) for kidney injury (NGAL and KIM-1) was also performed.

[8] = test system: Renca/GFP-Luc tumors in kidney capsule; test: Evaluation of DM1-Bdd for kidney cancer treatment (syngeneic orthotopic model); assay type: in vivo, BALB/c mice
Excerpt: The animals were monitored for tumor growth inhibition and survival as described above. Additional mice were used for histopathological analysis (n=4/group).
Slides were then counterstained with Hematoxylin.

[9] = design: species or system BALB/c mice; settings: mouse, in vivo, iv
Description: Pharmacokinetic study—BALB/c mice (Jackson Laboratory, Bar Harbor, Me.) were administered with ^89Zr-peptide or free ^89Zr (20 μCi, 100 μL) via tail-vein injections (n=4/condition). Blood samples (20 μL) were collected at various time intervals, using retro-orbital sinus puncture technique. The radioactivities were measured on Wallac Wizard 2 gamma counter (Perkin-Elmer, Waltham, Mass.). The pharmacokinetic models and parameters of ^89Zr-peptides and free ^89Zr, including the serum half-life and the plasma clearance, were estimated by fitting the data for compartmental model selection using PKSolver 2.0 software.

[10] = μPET/CT imaging and end-point biodistribution study of ^89Zr-peptides; assay type: in vivo, BALB/c mice
Description: μPET/CT imaging and biodistribution study—BALB/c mice were intravenously injected with different ^89Zr-peptide analogues (20 μCi, 100 μL). μPET/CT imaging was performed in animals with and without urine collection prior to the first imaging (n=4/analogue/condition). Whole-body images were acquired 1, 4, and 24 h after injection, using Inveon μPET/CT scanner (Siemens Medical Solutions, Malvern, Pa.). μPET/CT maximum […] projections were processed using Amide v1.0.4 and Inveon Research Workplace software. The radioactivities at different region of interest (ROI) were determined. For end-point biodistribution studies, the mice were euthanized 0.17, 1, 2, 5, and 7 days after treatment with ^89Zr-peptides (n=3/peptide analogue/time point). The radioactivities of the harvested organs were measured using the Wallac Wizard 2 gamma counter. The results were corrected from radioactive decay, and were expressed as a percentage of the injected dose (% ID) or percentage of injected dose per gram of tissue (% ID/g).

[11] = Fluorescence imaging of Cy-peptide analogues (whole body, urine, ex vivo organs); settings: i.v. 0.5 nmol, images 1 and 4 h
Description: Fluorescence imaging—Female SHO mice (Charles River Laboratories, Wilmington, Mass.) were administered with free Cyanine5.5 or Cy-peptide analogues (0.5 nmol of Cyanine5.5 content measured by UV absorbance at 680 nm) in a PBS (150 μL) via tail-vein injections (n=4/group). Real-time fluorescence imaging was performed using In vivo Xtreme imaging system (Bruker, Billerica, Mass.). Whole body fluorescence images were acquired 1 and 4 h post injection using the appropriate excitation (670 nm) and emission (750 nm) filters. The animals were then euthanized. The organs were excised to perform ex vivo fluorescence imaging. Imaging was also performed on urine samples (50 μL) collected from separate animals 1 h after i.v. injection of free dye or Cy-peptide analogues (n=4/treatment). Bruker MI software was used to process the fluorescence/bright light images and measure the fluorescence intensity in different ROIs. All the data were corrected to eliminate the organ or fluid auto-fluorescence.

[12] = i.v. 0.75 mg/kg of drug content weekly for 3 weeks
[13] = i.v. weekly for 3 weeks, CIS 10 mg/kg

inflammatory cytokine levels (IL-1β, IL-2, IL-6, IL-10, TNF-α, INF-γ) in plasma [1]: no increase
Molecule: NCCC(=O)N[C@H](CC(=O)O)C(=O)N[C@H](CC(=O)O)C(=O)NCCC(=O)N[C@H](CC(=O)O)C(=O)N[C@H](CC(=O)O)C(=O)NCCC(=O)N[C@H](CC(=O)O)C(=O)N[C@H](CC(=O)O)C(=O)NCCC(=O)N[C@H](CC(=O)O)C(=O)N[C@H](CC(=O)O)C(N)=O [Bdd] (HELM PEPTIDE1{[bAla].[dD].[dD].[bAla].[dD].[dD].[bAla].[dD].[dD].[bAla].[dD].[dD].[am]}$$$$V2.0; N-terminus assumed)

Molecule: COc1cc2cc(c1Cl)N(C)C(=O)C[C@H](OC(=O)[C@H](C)N(C)C(=O)CCS)[C@]1(C)O[C@H]1[C@H](C)[C@@H]1C[C@@](O)(NC(=O)O1)[C@H](OC)/C=C/C=C(\C)C2 [DM1, N2′-deacetyl-N2′-(3-mercapto-1-oxopropyl)-maytansine]
animal survival compared to i.t. MIT [2, 12]: prolonged animal survival | tumor growth inhibition compared to i.t. MIT [2, 12]: more effective in inhibiting tumor growth | overall survival after 100 days ([2]; i.v. 0.75 mg/kg weekly for 3 weeks): 0% | muscle injury (CK activity) ([3]; i.v. weekly for 3 weeks, DM1 0.75 mg/kg, CIS 10 mg/kg): induced muscle injury | hematology (red blood cell, leukocyte, platelet counts, morphology) [3, 13]: reticulocytosis without apparent anemia; also recorded: inflammatory response characterized by increased proportions of neutrophils, monocytes, and platelets | histopathology of liver, spleen, heart, lungs, kidneys [3, 13]: Increased splenic and hepatic EMH | serum liver enzymes (ALP, ALT, AST) [3, 13]: increases | urea nitrogen/creatinine ratio [3, 13]: increases | potency relative to commonly used ITC drugs (MIT, DOX and CIS) [4]: 100 fold | activity against Renca cell line [5]: effective | IC50 values [6]: nanomolar (nM) range | potency compared to other conventional chemotherapeutics [6]: more potent than cisplatin (CIS), doxorubicin (DOX) and mitomycin (MIT), and as effective as gemcitabine (GEM) | induction of KIM-1 and/or NGAL [7]: continued induction | survival ([8]; either i.v. or i.t., 0.75 mg/kg weekly): died | histological examination of kidneys (tumor) ([8]; one week after completing the treatment course): large and accompanied with an infiltration of mononuclear cells

Molecule: COc1cc2cc(c1Cl)N(C)C(=O)C[C@H](OC(=O)[C@H](C)N(C)C(=O)CCSSCCC(=O)NCCC(=O)N[C@H](CC(=O)O)C(=O)N[C@H](CC(=O)O)C(=O)NCCC(=O)N[C@H](CC(=O)O)C(=O)N[C@H](CC(=O)O)C(=O)NCCC(=O)N[C@H](CC(=O)O)C(=O)N[C@H](CC(=O)O)C(=O)NCCC(=O)N[C@H](CC(=O)O)C(=O)N[C@H](CC(=O)O)C(N)=O)[C@]1(C)O[C@H]1[C@H](C)[C@@H]1C[C@@](O)(NC(=O)O1)[C@H](OC)/C=C/C=C(\C)C2 [DM1-Bdd] ([Mpa](X1)[βAla][dD][dD][βAla][dD][dD][βAla][dD][dD][βAla][dD][dD]-NH2)
hepatotoxicity [3, 12]: not hepatotoxic | hematology (red blood cell, leukocyte, platelet counts, morphology) [3, 13]: did not affect | histopathology of liver, spleen, heart, lungs, kidneys [3, 13]: no morphological evidence of injury | serum liver enzymes (ALP, ALT, AST) [3, 13]: no significant alteration | urea nitrogen/creatinine ratio [3, 13]: normal | immunoreactivity of kidney sections for KIM-1 and NGAL compared to PBS ([7]; 3 days after i.v. administration): no elevation of the immunoreactivity | histologic examination of kidneys ([7]; 3 days after i.v. drug administration, CIS 10 mg/kg, DM1-Bdd 0.75 mg/kg): did not reveal any abnormalities | time for urinary KIM-1 and NGAL to return to basal levels ([7]; single i.v. dose 0.75 mg/kg of drug content): ≤ 3 days | urinary KIM-1 and NGAL levels ([7]; single i.v. dose 0.75 mg/kg of drug content, 1 day after injection): slightly increased

Molecule: COc1cccc2c1C(=O)c1c(O)c3c(c(O)c1C2=O)C[C@@](O)(C(=O)CO)C[C@@H]3O[C@H]1C[C@H](N)[C@H](O)[C@H](C)O1 [DOX, Doxorubicin]
animal survival ([2]; 5 mg/kg of drug content weekly for 3 weeks): shorter life expectancy compared to the PBS control | drug-induced mortality ([2]; DOX 5 mg/kg weekly): died prior to receiving the final dose

Molecule: Nc1ccn([C@@H]2O[C@H](CO)[C@@H](O)C2(F)F)c(=O)n1 [GEM, gemcitabine]
induction of KIM-1 and/or NGAL [7]: continued induction

Molecule: CO[C@@]12[C@H](COC(N)=O)C3=C(C(=O)C(C)=C(N)C3=O)N1C[C@@H]1N[C@@H]12 [MIT, Mitomycin]
induction of KIM-1 and/or NGAL [7]: continued induction

Molecule: CC(=O)N(O)CCCCCNC(=O)CCC(=O)N(O)CCCCCNC(=O)CCC(=O)N(O)CCCCCNC(=S)Nc1ccc(NC(=S)NCCC(=O)N[C@H](CC(=O)O)C(=O)N[C@H](CC(=O)O)C(=O)NCCC(=O)N[C@H](CC(=O)O)C(=O)N[C@H](CC(=O)O)C(=O)NCCC(=O)N[C@H](CC(=O)O)C(=O)N[C@H](CC(=O)O)C(=O)NCCC(=O)N[C@H](CC(=O)O)C(=O)N[C@H](CC(=O)O)C(N)=O)cc1 [^89Zr-Bdd, metal not drawn] (HELM PEPTIDE1{[CC(=O)N(O)CCCCCNC(=O)CCC(=O)N(O)CCCCCNC(=O)CCC(=O)N(O)CCCCCNC(=S)Nc1ccc(NC(=S)[*:2])cc1].[bAla].[dD].[dD].[bAla].[dD].[dD].[bAla].[dD].[dD].[bAla].[dD].[dD].[am]}$$$$V2.0)
terminal half-life ([9]; BALB/c): 31.8 min | plasma clearance [9]: rapid | time to excretion into the urine after i.v. administration ([10]; i.v., confirmed by absence of radioactivity in emptied bladders): ≤ 1 h | ID found in kidneys ([10]; mouse, in vivo): 15.1 % ID | ID found in kidneys after 7 days ([10]; mouse, in vivo): 2.1 % ID | peptide in major organs or blood circulation ([10]; mouse, in vivo, iv): No peptide in major organs or blood circulation was detected

elimination route / main organ uptake by fluorescence imaging [11]: mainly taken up by the liver
Molecule: Cyanine5.5
